Experimental data as given in US11142526B2, “Spirocycle compounds and methods of making and using same” (H. Lundbeck A/S, priority 2017, dated 2021).
Read-outs that look alike come from different tables or passages of the source.

Assays:
MAGL [1] = target: T1, MAGL (Mus musculus (Mouse), UniProt O35678); test: In vitro competitive activity-based protein profiling, mouse brain proteome; assay type: biochemical; details: for inhibition at 1 µM: mouse; for IC50: mouse brain
MAGL [2] = target: MAGL (Homo sapiens (Human), UniProt Q99685); test: In vitro competitive activity-based protein profiling (gel-based, FP-Rh or HT-01 probe); assay type: biochemical
Sequence of MAGL (Homo sapiens (Human), UniProt Q99685) (Q99685 whole entry): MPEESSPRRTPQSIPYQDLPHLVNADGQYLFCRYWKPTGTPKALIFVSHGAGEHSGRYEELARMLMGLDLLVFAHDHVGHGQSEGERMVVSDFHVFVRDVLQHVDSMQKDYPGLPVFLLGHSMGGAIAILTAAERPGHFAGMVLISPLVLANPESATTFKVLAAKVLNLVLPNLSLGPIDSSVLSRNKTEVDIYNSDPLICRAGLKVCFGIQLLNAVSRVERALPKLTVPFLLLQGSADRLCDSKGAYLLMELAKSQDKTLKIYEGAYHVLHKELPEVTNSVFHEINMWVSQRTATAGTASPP
Method: In Vitro Competitive Activity-Based Protein Profiling.
Proteomes (human prefrontal cortex or cell membrane fractions) (50 μL, 1.0 mg/mL total protein concentration) were preincubated with varying concentrations of inhibitors at 37° C. After 30 min, FP-Rh or HT-01 (1.0 μL, 50 μM in DMSO) was added and the mixture was incubated for another 30 min at room temperature. Reactions were quenched with SDS loading buffer (15 μL—4×) and run on SDS-PAGE.

MAGL [3] = target: T1, MAGL; test: Mouse brain proteomes from inhibitor treated mice (oral gavage, brain MAGL activity 4 h after administration); assay type: in vivo; details: 5 mg/kg oral gavage
Method: Preparation of Mouse Brain Proteomes from Inhibitor Treated Mice.
Inhibitors were administered to wild-type C57B1/6J by oral gavage in a vehicle of polyethylene glycol.

[4] = human PC3, read-out: MAGL % Inhibition at 1 μM (human PC3)
[5] = human PFC (prefrontal cortex), read-out: MAGL % Inhibition at 1 μM (human PFC)
[6] = human PC3, read-out: MAGL Human PC3 (IC50)

T1 sequence (O35678 whole entry): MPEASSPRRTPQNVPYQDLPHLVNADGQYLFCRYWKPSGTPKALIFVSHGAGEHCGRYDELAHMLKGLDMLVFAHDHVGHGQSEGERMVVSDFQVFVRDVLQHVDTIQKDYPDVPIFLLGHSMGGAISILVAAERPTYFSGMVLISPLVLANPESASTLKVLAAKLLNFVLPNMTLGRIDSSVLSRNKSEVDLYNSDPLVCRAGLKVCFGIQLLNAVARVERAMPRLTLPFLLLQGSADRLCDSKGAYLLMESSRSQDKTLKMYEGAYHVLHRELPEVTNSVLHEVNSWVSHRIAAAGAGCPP

SMILES	inhibition at 1 µM (MAGL [1]) [%]	inhibition at 1 µM (MAGL [2]; [4]) [%]	inhibition at 1 µM (MAGL [2]; [5]) [%]	IC50 (MAGL [2]; [6]) [nM]	MAGL % Inhibition at 5 mg/kg (Mouse) (MAGL [3])	IC50 (MAGL [1]) [nM]	IC50 (MAGL [2]; human PFC (prefrontal cortex), read-out: MAGL Human PFC (IC50)) [nM]
CC1(NC(=O)c2nnc3n2CCN(C2CC2)C3)CCN(C(=O)OC(C(F)(F)F)C(F)(F)F)CC1 [Example 204, 1,1,1,3,3,3-Hexafluoropropan-2-yl 4-(7-cyclopropyl-5,6,7,8-tetrahydro-[1,2,4]triazolo[4,3-a]pyrazine-3-carboxamido)-4-methylpiperidine-1-carboxylate]	> 75	> 75	> 75	< 100	### (% inhibition is greater than or equal to 75%)	–	–
CN(C(=O)C1(c2cnccn2)CC1)C1(C)CCN(C(=O)OC(C(F)(F)F)C(F)(F)F)CC1 [Example 176, 1,1,1,3,3,3-Hexafluoropropan-2-yl 4-methyl-4-(N-methyl-1-(pyrazin-2-yl)cyclopropane-1-carboxamido) piperidine-1-carboxylate]	> 75	> 75	> 75	< 100	# (% inhibition less or equal to 25%)	–	–
CC1(NC(=O)c2cn3c(n2)CN(C2CC2)CC3)CCN(C(=O)OC(C(F)(F)F)C(F)(F)F)CC1 [Example 174, 1,1,1,3,3,3-Hexafluoropropan-2-yl 4-(7-cyclopropyl-5,6,7,8-tetrahydroimidazo[1,2-a]pyrazine-2-carboxamido)-4-methylpiperidine-1-carboxylate]	> 75	> 75	> 75	< 100	### (% inhibition is greater than or equal to 75%)	–	–
O=C(OC(C(F)(F)F)C(F)(F)F)N1CCC2(CCCN2Cc2cnc3ccc(Cl)cn23)CC1 [Example 229, 1,1,1,3,3,3-Hexafluoropropan-2-yl 1-((6-chloroimidazo[1,2-a]pyridin-3-yl)methyl)-1,8-diazaspiro[4.5]decane-8-carboxylate]	> 75	–	–	< 100	### (% inhibition is greater than or equal to 75%)	< 100	–
O=C(OC(C(F)(F)F)C(F)(F)F)N1CCC2(CCCN2C(=O)c2cc3ccc(Cl)cc3s2)CC1 [Example 60, 1,1,1,3,3,3-Hexafluoropropan-2-yl 1-(6-chlorobenzo[b]thiophene-2-carbonyl)-1,8-diazaspiro[4.5] decane-8-carboxylate]	> 75	–	–	< 100	### (% inhibition is greater than or equal to 75%)	< 100	–
O=C(OC(C(F)(F)F)C(F)(F)F)N1CCC2(CCCN2C(=O)c2cc3nc(Cl)ccn3n2)CC1 [Example 151, 1,1,1,3,3,3-Hexafluoropropan-2-yl 1-(5-chloropyrazolo[1,5-a]pyrimidine-2-carbonyl)-1,8-diazaspiro[4.5] decane-8-carboxylate]	> 75	> 75	> 75	–	## (% inhibition is less than 75% and greater than 25%)	–	–
CC(C)(O)CN1CCn2cc(C(=O)N3CCCC34CCN(C(=O)OC(C(F)(F)F)C(F)(F)F)CC4)nc2C1 [Example 21, 1,1,1,3,3,3-Hexafluoropropan-2-yl 1-(7-(2-hydroxy-2-methylpropyl)-5,6,7,8-tetrahydroimidazo[1,2-a]pyrazine-2-carbonyl)-1,8-diazaspiro[4.5]decane-8-carboxylate]	> 75	> 75	> 75	< 100	# (% inhibition less or equal to 25%)	–	–
O=C(OC(C(F)(F)F)C(F)(F)F)N1CCC2(CCCN2Cc2cc3cc(Cl)ccc3s2)CC1 [Example 40, 1,1,1,3,3,3-Hexafluoropropan-2-yl 1-((5-chlorobenzo[b]thiophen-2-yl)methyl)-1,8-diazaspiro[4.5] decane-8-carboxylate]	> 75	–	–	< 100	### (% inhibition is greater than or equal to 75%)	< 100	–
O=C(OC(C(F)(F)F)C(F)(F)F)N1CCC2(CCCN2C(=O)c2cn3c(n2)CN(C2CC2)CC3)CC1 [Example 2, 1,1,1,3,3,3-Hexafluoropropan-2-yl 1-(7-cyclopropyl-5,6,7,8-tetrahydroimidazo[1,2-a]pyrazine-2-carbonyl)-1,8-diazaspiro[4.5]decane-8-carboxylate]	> 75	> 75	> 75	< 100	### (% inhibition is greater than or equal to 75%)	< 100	< 100
O=C(OC(C(F)(F)F)C(F)(F)F)N1CCC2(CCCN2Cc2ccc3cc(F)ccc3n2)CC1 [Example 56, 1,1,1,3,3,3-Hexafluoropropan-2-yl 1-((6-fluoroquinolin-2-yl)methyl)-1,8-diazaspiro[4.5] decane-8-carboxylate]	> 75	–	–	< 100	### (% inhibition is greater than or equal to 75%)	< 100	–
Cc1ccc2nc(Cl)c(CN3CCCC34CCN(C(=O)OC(C(F)(F)F)C(F)(F)F)CC4)cc2c1 [Example 49, 1,1,1,3,3,3-Hexafluoropropan-2-yl 1-((2-chloro-6-methylquinolin-3-yl)methyl)-1,8-diazaspiro[4.5] decane-8-carboxylate]	> 75	–	–	< 100	### (% inhibition is greater than or equal to 75%)	< 100	–
O=C(OC(C(F)(F)F)C(F)(F)F)N1CCC2(CCCN2Cc2cnc(N3CCCC3)s2)CC1 [Example 226, 1,1,1,3,3,3-Hexafluoropropan-2-yl 1-((2-(pyrrolidin-1-yl)thiazol-5-yl)methyl)-1,8-diazaspiro[4.5]decane-8-carboxylate]	> 75	–	–	< 100	### (% inhibition is greater than or equal to 75%)	< 100	–
CC1(NC(=O)c2nnc3n2CCN(C2CCOC2)C3)CCN(C(=O)OC(C(F)(F)F)C(F)(F)F)CC1 (stereo not shown) [Example 208, 1,1,1,3,3,3-Hexafluoropropan-2-yl 4-methyl-4-(7-(THF-3-yl)-5,6,7,8-tetrahydro-[1,2,4]triazolo [4,3-a]pyrazine-3-carboxamido) piperidine-1-carboxylate]	> 75	> 75	> 75	< 100	### (% inhibition is greater than or equal to 75%)	–	–
CC1(CN2CCn3cc(C(=O)N4CCCC45CCN(C(=O)OC(C(F)(F)F)C(F)(F)F)CC5)nc3C2)COC1 [Example 170, 1,1,1,3,3,3-Hexafluoropropan-2-yl 1-(7-((3-methyloxetan-3-yl)methyl)-5,6,7,8-tetrahydroimidazo [1,2-a]pyrazine-2-carbonyl)-1,8-diazaspiro[4.5] decane-8-carboxylate]	> 75	> 75	> 75	< 100	# (% inhibition less or equal to 25%)	–	–
O=C(OC(C(F)(F)F)C(F)(F)F)N1CCC2(CCCN2C(=O)c2cn3c(n2)CN(C2COC2)CC3)CC1 [Example 161, 1.1,1,3,3,3-Hexafluoropropan-2-yl 1-(7-(oxetan-3-yl)-5,6,7,8-tetrahydroimidazo [1,2-a]pyrazine-2-carbonyl)-1,8-diazaspiro[4.5] decane-8-carboxylate]	> 75	> 75	–	< 100	## (% inhibition is less than 75% and greater than 25%)	–	–
O=C(OC(C(F)(F)F)C(F)(F)F)N1CCC2(CCCN2C(=O)C2(c3ncc(Cl)cn3)CC2)CC1 [Example 31, 1,1,1,3,3,3-Hexafluoropropan-2-yl 1-(1-(5-chloropyrimidin-2-yl)cyclopropane-1-carbonyl)-1,8-diazaspiro[4.5]decane-8-carboxylate]	> 75	> 75	> 75	< 100	### (% inhibition is greater than or equal to 75%)	–	–
CC(C)C(=O)N1CCn2cc(C(=O)NC3(C)CCN(C(=O)OC(C(F)(F)F)C(F)(F)F)CC3)nc2C1 [Example 37, 1,1,1,3,3,3-Hexafluoropropan-2-yl 4-(7-isobutyryl-5,6,7,8-tetrahydroimidazo[1,2-a]pyrazine-2-carboxamido)-4-methylpiperidine-1-carboxylate]	> 75	> 75	> 75	< 100	# (% inhibition less or equal to 25%)	–	–
O=C(OC(C(F)(F)F)C(F)(F)F)N1CCC2(CCCN2C(=O)c2cnn3c2CCCC3)CC1 [Example 148, 1.1,1,3,3,3-Hexafluoropropan-2-yl 1-(4,5,6,7-tetrahydropyrazolo [1,5-a]pyridine-3-carbonyl)-1,8-diazaspiro[4.5] decane-8-carboxylate]	> 75	> 75	> 75	< 100	### (% inhibition is greater than or equal to 75%)	–	–
O=C(OC(C(F)(F)F)C(F)(F)F)N1CCC2(CCCN2Cc2cnc3ccccn23)CC1 [Example 228, 1,1,1,3,3,3-Hexafluoropropan-2-yl 1-(imidazo [1,2-a]pyridin-3-ylmethyl)-1,8-diazaspiro[4.5]decane-8-carboxylate]	> 75	–	–	< 100	### (% inhibition is greater than or equal to 75%)	< 100	–
